Source: ChEMBL document CHEMBL2203066 (J Med Chem, 2012)
Active and inactive are the calls of the source. The rule behind the calls is not given here.

Tests used:
[1] = Drug excretion in Sprague-Dawley rat urine at 5 mg/kg, po; type: ADME, organism-based; design: dose 5 mg/kg, route oral; settings: read-out: Drug excretion
[2] = Drug excretion in Sprague-Dawley rat feces at 5 mg/kg, po; type: ADME, organism-based; design: dose 5 mg/kg, route oral; settings: faeces, read-out: Drug excretion
Neuraminidase = Neuraminidase (Influenza A virus, UniProt B4URF0)
Influenza A virus [3] = test: Antiviral activity against Influenza A virus A/Brisbane/10/2007(H3N2) infected in MDCK cells assessed as protection against virus-induced cytopathic effect after 48 to 72 hrs by CellTiter 96 aqueous assay; type: functional, organism-based
Influenza B virus [4] = test: Antiviral activity against Influenza B virus B/Florida/4/2006 infected in MDCK cells assessed as protection against virus-induced cytopathic effect after 48 to 72 hrs by CellTiter 96 aqueous assay; type: functional, cell-based; settings: B/Florida/4/2006, MDCK
Influenza B virus [5] = test: Antiviral activity against Influenza B virus B/Sichuan/379/99 infected in MDCK cells assessed as protection against virus-induced cytopathic effect after 48 to 72 hrs by CellTiter 96 aqueous assay; type: functional, organism-based; settings: B/Sichuan/379/99, MDCK
MDCK = test: Cytotoxicity against MDCK cells at 100 uM; type: cell-based, Canis lupus familiaris; settings: dog
Blood [6] = test: Metabolic stability in human whole blood at 5 uM; type: ADME, tissue-based
[7] = Metabolic stability in dog whole blood at 5 uM; type: ADME, tissue-based, Canis lupus familiaris
Blood [8] = test: Metabolic stability in rat whole blood at 5 uM; type: ADME, tissue-based
Liver microsomes [9] = test: Metabolic stability in human liver microsomes at 3 uM; type: ADME, Microsome
Liver = test: Metabolic stability in dog liver microsomes at 3 uM; type: ADME, Canis lupus familiaris, Microsome
Liver microsomes [10] = test: Metabolic stability in rat liver microsomes at 3 uM; type: ADME, Microsome
Influenza A virus [11] = test: Antiviral activity against Influenza A virus A/WSN/1933(H1N1) infected in BALB/c mouse assessed as protection against virus-induced mortality at 10 mg/kg/day, po bid for 5 days followed by viral infection at 4 hrs post first dose measured 8 days post infection; type: functional, organism-based
Influenza A virus [12] = test: Antiviral activity against Influenza A virus A/WSN/1933(H1N1) infected in BALB/c mouse assessed as protection against virus-induced body weight loss at 10 mg/kg/day, po bid for 5 days followed by viral infection at 4 hrs post first dose measured 8 days post infection; type: functional, organism-based
Influenza A virus [13] = test: Antiviral activity against Influenza A virus A/WSN/1933(H1N1) infected in BALB/c mouse assessed as protection against virus-induced mortality at 1 mg/kg/day, po bid for 5 days followed by viral infection at 4 hrs post first dose measured after 2 to 14 days; type: functional, organism-based
Influenza A virus [14] = test: Antiviral activity against Influenza A virus A/CA/07/2009(H1N1) infected in BALB/c mouse assessed as protection against virus-induced body weight loss at 10 mg/kg/day, po bid for 5 days followed by viral infection at 4 hrs post first dose measured 2 to 14 days post infection; type: functional, organism-based; settings: A/California/07/2009(H1N1)
Influenza A virus [15] = test: Antiviral activity against Influenza A virus A/CA/07/2009(H1N1) infected in BALB/c mouse assessed as protection against virus-induced body weight loss at 1 mg/kg/day, po bid for 5 days followed by viral infection at 4 hrs post first dose measured 20 days post infection; type: functional, organism-based; settings: A/California/07/2009(H1N1)
Influenza A virus [16] = test: Antiviral activity against Influenza A virus A/CA/07/2009(H1N1) infected in BALB/c mouse assessed as protection against virus-induced mortality at 1 mg/kg/day, po bid for 5 days followed by viral infection at 4 hrs post first dose measured on day 20 to day 21; type: functional, organism-based; settings: A/California/07/2009(H1N1)
Influenza A virus [17] = test: Antiviral activity against Influenza A virus A/CA/07/2009(H1N1) infected in BALB/c mouse assessed as protection against virus-induced mortality at 0.1 mg/kg/day, po bid for 5 days followed by viral infection at 4 hrs post first dose measured after 2 to 14 days; type: functional, organism-based; settings: A/California/07/2009(H1N1)
Influenza A virus [18] = test: Antiviral activity against Influenza A virus A/CA/07/2009(H1N1) infected in BALB/c mouse assessed as protection against virus-induced body weight loss at 0.1 mg/kg/day, po bid for 5 days followed by viral infection at 4 hrs post first dose measured after 2 to 14 days; type: functional, organism-based; settings: A/California/07/2009(H1N1)
[19] = Drug metabolism in human liver microsomes at 3 uM after 1 hr; type: ADME, Microsome; settings: read-out: Drug metabolism
[20] = Drug metabolism in dog liver microsomes at 3 uM after 1 hr; type: ADME, Canis lupus familiaris, Microsome; settings: read-out: Drug metabolism
[21] = Drug metabolism in rat liver microsomes at 3 uM after 1 hr; type: ADME, Microsome; settings: read-out: Drug metabolism
Mus musculus [22] = test: Acute toxicity in CD1 mouse assessed as mortality at 2000 mg/kg, ip; type: organism-based; design: dose 2000 mg/kg, route intraperitoneal; settings: in vivo
Mus musculus [23] = test: Acute toxicity in CD1 mouse assessed as tremor at 300 to 2000 mg/kg, ip measured within 2 days; type: organism-based; design: dose 300-2000 mg/kg, route intraperitoneal; settings: in vivo, 48 h
Mus musculus [24] = test: Acute toxicity in CD1 mouse assessed as convulsion at 300 to 2000 mg/kg, ip measured within 2 days; type: organism-based; design: dose 300-2000 mg/kg, route intraperitoneal; settings: in vivo, 48 h
Mus musculus [25] = test: Acute toxicity in CD1 mouse assessed as body jerks at 300 to 2000 mg/kg, ip measured within 2 days; type: organism-based; design: dose 300-2000 mg/kg, route intraperitoneal; settings: in vivo, 48 h
Mus musculus [26] = test: Acute toxicity in CD1 mouse assessed as hypoactivity at 300 to 2000 mg/kg, ip measured within 2 days; type: organism-based; design: dose 300-2000 mg/kg, route intraperitoneal; settings: in vivo, 48 h
Mus musculus [27] = test: Acute toxicity in CD1 mouse assessed as hunched posture at 300 to 2000 mg/kg, ip measured within 2 days; type: organism-based; design: dose 300-2000 mg/kg, route intraperitoneal; settings: in vivo, 48 h
Mus musculus [28] = test: Acute toxicity in CD1 mouse assessed as piloerection at 300 to 2000 mg/kg, ip measured within 2 days; type: organism-based; design: dose 300-2000 mg/kg, route intraperitoneal; settings: in vivo, 48 h
Mus musculus [29] = test: Acute toxicity in CD1 mouse assessed as lesions at 300 to 2000 mg/kg, ip after 15 days by necropsy analysis; type: organism-based; design: dose 300-2000 mg/kg, route intraperitoneal; settings: in vivo, 360 h
Plasma = test: Plasma concentration in Sprague-Dawley rat at 1 mg/kg, po; type: ADME, organism-based; design: dose 1 mg/kg, route oral; settings: in vivo, BLD = below limit of detection
Influenza A virus [30] = test: Antiviral activity against Influenza A virus A/WSN/1933(H1N1) infected in BALB/c mouse assessed as partial protection against virus-induced mortality at 0.1 mg/kg/day, po bid for 5 days followed by viral infection at 4 hrs post first dose measured 2 to 14 days post infection; type: functional, organism-based
Influenza A virus [31] = test: Antiviral activity against Influenza A virus A/WSN/1933(H1N1) infected in BALB/c mouse assessed as partial protection against virus-induced body weight loss at 0.1 mg/kg/day, po bid for 5 days followed by viral infection at 4 hrs post first dose measured 2 to 14 days post infection; type: functional, organism-based
Mus musculus [32] = test: Acute toxicity in CD1 mouse assessed as mortality at 750 mg/kg, iv; type: organism-based; design: dose 750 mg/kg, route intravenous; settings: in vivo
Mus musculus [33] = test: Acute toxicity in CD1 mouse assessed as tremor at 300 to 1000 mg/kg, iv measured within 2 days; type: organism-based; design: dose 300-1000 mg/kg, route intravenous; settings: in vivo, 48 h
Mus musculus [34] = test: Acute toxicity in CD1 mouse assessed as convulsion at 300 to 1000 mg/kg, iv measured within 2 days; type: organism-based; design: dose 300-1000 mg/kg, route intravenous; settings: in vivo, 48 h
Mus musculus [35] = test: Acute toxicity in CD1 mouse assessed as body jerks at 300 to 1000 mg/kg, iv measured within 2 days; type: organism-based; design: dose 300-1000 mg/kg, route intravenous; settings: in vivo, 48 h
Mus musculus [36] = test: Acute toxicity in CD1 mouse assessed as hypoactivity at 300 to 1000 mg/kg, iv measured within 2 days; type: organism-based; design: dose 300-1000 mg/kg, route intravenous; settings: in vivo, 48 h
Mus musculus [37] = test: Acute toxicity in CD1 mouse assessed as hunched posture at 300 to 1000 mg/kg, iv measured within 2 days; type: organism-based; design: dose 300-1000 mg/kg, route intravenous; settings: in vivo, 48 h
Mus musculus [38] = test: Acute toxicity in CD1 mouse assessed as piloerection at 300 to 1000 mg/kg, iv measured within 2 days; type: organism-based; design: dose 300-1000 mg/kg, route intravenous; settings: in vivo, 48 h
Mus musculus [39] = test: Acute toxicity in CD1 mouse assessed as lesions at 300 to 1000 mg/kg, iv after 15 days by necropsy analysis; type: organism-based; design: dose 300-1000 mg/kg, route intravenous; settings: in vivo, 360 h
in vivo = settings: Sprague-Dawley, rat, po, 10 mg/kg

Chain of Neuraminidase (B4URF0 whole entry): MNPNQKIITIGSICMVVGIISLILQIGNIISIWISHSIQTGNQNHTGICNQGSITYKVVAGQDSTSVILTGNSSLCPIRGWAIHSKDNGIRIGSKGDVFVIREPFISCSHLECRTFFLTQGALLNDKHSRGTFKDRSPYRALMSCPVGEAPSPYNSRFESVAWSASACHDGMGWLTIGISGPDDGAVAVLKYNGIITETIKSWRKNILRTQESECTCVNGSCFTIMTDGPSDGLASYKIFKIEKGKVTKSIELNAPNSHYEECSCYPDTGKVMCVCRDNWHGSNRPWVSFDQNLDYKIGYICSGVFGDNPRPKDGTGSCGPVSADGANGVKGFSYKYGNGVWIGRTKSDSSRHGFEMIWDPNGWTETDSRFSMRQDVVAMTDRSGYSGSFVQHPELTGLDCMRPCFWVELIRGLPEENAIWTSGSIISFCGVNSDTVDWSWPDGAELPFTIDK

## CCC(CC)O[C@@H]1C=C(P(=O)(O)O)C[C@H](NC(=N)N)[C@H]1NC(C)=O
[1]
  dose excreted: 1.5%
[2]
  dose excreted: 43.2%
Neuraminidase
  IC50: 0.0003 µM
Influenza A virus [3]
  EC50: > 10 µM
Influenza B virus [4]
  EC50: > 10 µM
Influenza B virus [5]
  EC50: > 10 µM
MDCK
  Activity: Non-toxic
Blood [6]
  Stability: Unstable
[7]
  Stability: Unstable
Blood [8]
  Stability: Unstable
Liver microsomes [9]
  Stability: Unstable
Liver
  Stability: Unstable
Liver microsomes [10]
  Stability: Unstable
Influenza A virus [11]
  Activity: Active
Influenza A virus [12]
  Activity: Active
Influenza A virus [13]
  Activity: Active
Influenza A virus [14]
  Activity: Active
Influenza A virus [15]
  Activity: inactive
Influenza A virus [16]
  Activity: inactive
Influenza A virus [17]
  Activity: inactive
Influenza A virus [18]
  Activity: inactive

## CCOP(=O)(OCC)C1=C[C@@H](OC(CC)CC)[C@H](NC(C)=O)[C@@H](N)C1
Influenza A virus [11]
  Activity: inactive
Influenza A virus [12]
  Activity: inactive
Influenza A virus [13]
  Activity: Active

## Cc1ncc2n1-c1ccc(Cl)cc1C(c1ccccc1F)=NC2 [MIDAZOLAM]
[19]
  metabolised at 1 h, 3 µM: 65%
[20]
  metabolised at 1 h, 3 µM: 65%
[21]
  metabolised at 1 h, 3 µM: 65%

## CCOP(=O)(O)C1=C[C@@H](OC(CC)CC)[C@H](NC(C)=O)[C@@H](N)C1 [TAMIPHOSPHOR MONOETHYL ESTER]
Mus musculus [22]
  Activity: Toxic
Mus musculus [23]
  Activity: Non-toxic
Mus musculus [24]
  Activity: Non-toxic
Mus musculus [25]
  Activity: Non-toxic
Mus musculus [26]
  Activity: Non-toxic
Mus musculus [27]
  Activity: Non-toxic
Mus musculus [28]
  Activity: Non-toxic
Mus musculus [29]
  Activity: Non-toxic
Plasma
  Cp: BLD
Influenza A virus [3]
  EC50: > 10 µM
MDCK
  Activity: Non-toxic
Influenza A virus [11]
  Activity: Active
Influenza A virus [12]
  Activity: Active
Influenza A virus [13]
  Activity: Active
Influenza A virus [30]
  Activity: Active
Influenza A virus [31]
  Activity: Active

## CCOP(=O)(O)C1=C[C@@H](OC(CC)CC)[C@H](NC(C)=O)[C@@H](NC(=N)N)C1 [TAMIPHOSPHOR MONOETHYL ESTER]
Influenza A virus [11]
  Activity: Active
Influenza A virus [12]
  Activity: Active
Influenza A virus [13]
  Activity: Active
Influenza A virus [30]
  Activity: Active
Influenza A virus [31]
  Activity: Active
Influenza A virus [14]
  Activity: Active
Influenza A virus [15]
  Activity: inactive
Influenza A virus [16]
  Activity: inactive
Influenza A virus [17]
  Activity: inactive
Influenza A virus [18]
  Activity: inactive

## CCC(CC)O[C@@H]1C=C(P(=O)(O)O)C[C@H](N)[C@H]1NC(C)=O [TAMIPHOSPHOR]
Mus musculus [32]
  Activity: Toxic
Mus musculus [33]
  Activity: Non-toxic
Mus musculus [34]
  Activity: Non-toxic
Mus musculus [35]
  Activity: Non-toxic
Mus musculus [36]
  Activity: Non-toxic
Mus musculus [37]
  Activity: Non-toxic
Mus musculus [38]
  Activity: Non-toxic
Mus musculus [39]
  Activity: Non-toxic
Neuraminidase
  IC50: 0.0018 µM
Influenza A virus [3]
  EC50: > 10 µM
MDCK
  Activity: Non-toxic
Influenza A virus [11]
  Activity: Active
Influenza A virus [12]
  Activity: Active
Influenza A virus [13]
  Activity: Active

## C[C@]12CC[C@H]3[C@@H](CCC4=CC(=O)CC[C@@]43C)[C@@H]1CC[C@@H]2O [TESTOSTERONE]
[19]
  metabolised at 1 h, 3 µM: 65%
[20]
  metabolised at 1 h, 3 µM: 65%
[21]
  metabolised at 1 h, 3 µM: 65%

## CC(=O)N[C@H]1[C@H]([C@H](O)[C@H](O)CO)OC(C(=O)O)=C[C@@H]1N=C(N)N [ZANAMIVIR]
In vivo
  bioavailability: 3.7%
